From patent US20250129002A1, “PRODUCTION METHOD OF PRODUCT 1,3-BUTYLENE GLYCOL” (KH Neochem Co., Ltd., priority 2021, published 2025) come the findings set out here.

This data set has as its system Cysteine-containing peptide for DPRA. As to the kind of experiment: Skin sensitization test in accordance with DPRA (direct peptide reactivity assay). Conditions: relative to peptide decrease percentage of Comparative Example 1 regarded as 100; 50 μL 1,3-butylene glycol with 0.667 mM peptide solution; HPLC after 72±2 hours; average of three measurements. The source says:
The product 1,3-butylene glycol in the present embodiment has reduced skin sensitization. Here, skin sensitization refers to causing an allergic reaction after skin contact. For the evaluation of skin sensitization, it had been normal to use experimental animals, but a direct peptide reactivity assay (DPRA), which is an in chemico test, was adopted as an alternative test in OECD guideline TG442C in 2015 from the viewpoint of animal welfare, and in the present embodiment as well, skin sensitization is evaluated by a test in accordance with DPRA. In more detail, skin sensitization is evaluated according to a method described in experimental examples to be described below.
Regarding 1,3-butylene glycol obtained in Examples 1 and 2 and Comparative Examples 1 and 2, skin sensitization was evaluated according to the following method.
15 mg of Cysteine-containing peptide for DPRA manufactured by Scrum Inc. and 30 mL of a 0.05 M phosphate buffer were mixed together to prepare a 0.05 M phosphate buffer solution containing 0.667 mM of the peptide (hereinafter, peptide solution). After one hour elapsed from the preparation of the peptide solution, 750 μL of the peptide solution and 250 μL of acetonitrile were put into each of three brown sample bottles for HPLC to prepare three reference solutions. After two hours elapsed from the preparation of the reference solutions, 750 μL of the peptide solution, 200 μL of acetonitrile and 50 μL of 1,3-butylene glycol were put into a different brown sample bottle for HPLC to prepare a sample solution (sample solution 1). Furthermore, sample solutions were prepared by the same operation after four hours and six hours elapsed from the preparation of the sample solution, respectively (sample solution 2 and sample solution 3). Regarding each of the three reference solutions and the sample solutions (sample solution 1, sample solution 2 and sample solution 3), measurement by HPLC analysis was performed after 72±2 hours elapsed from the preparation of each solution, and the average values of three measurements were calculated for the peak height of the peptide in the reference solutions and the sample solutions, respectively. The peptide decrease percentage was calculated using the following formula (1) from the calculated average values of three measurements.
Peptide decrease percentage (%)=(average value of three measurements for peak height of peptide in sample solutions/average value of three measurements for peak height of peptide in reference solutions)×100 (1)
In addition, regarding the present test, samples of the product 1,3-butylene glycol to be compared were tested on the same day from the viewpoint of the reproducibility. […]
Consider `CC(O)CCO` (stereo not shown) [Comparative Example 1, 1,3-butylene glycol], for which the “Relative value of peptide decrease percentage” value is reported as 100. Under `CC(O)CCO` (stereo not shown) [Comparative Example 2, 1,3-butylene glycol] stands 121; under `CC(O)CCO` (stereo not shown) [Example 1, 1,3-butylene glycol], 73; under `CC(O)CCO` (stereo not shown) [Example 2, 1,3-butylene glycol], 85.
